# Key:
# 5-FU-treated mice = assay: platelet production in vivo in 5-FU-induced thrombocytopenia with mito-drugs; design: species or system B6 mice; settings: 100 mg/kg gavage twice a day for 4 days
# Experimental: FIG. 10 provides a graph showing the enhancement of plt production by mito-drugs in vivo. All mice were treated with two doses of 5-FU (FU), along with an indicated mito-drug or LLLT for 4 consecutive days (red arrow). *, p<0.05, **, p<0.01 and ***, p<0.001 in the presence or absence of indicated drugs or LLLT. n=10 in each group.
# The 5-FU-treated mice were gavaged with BEZ or Res at 100 mg/kg body weight or vehicle control twice a day for 4 consecutive days starting at 6 hr after the first 5-FU injection. For comparison, 5-FU-treated mice were also administered LLL daily for 4 consecutive days in parallel. […] Whether or not a higher dose or dosage of BEZ can further increase the efficacy remains to be investigated.
# IEX-1-deficient mice = settings: Ramsey et al., Platelets 2015; cited from earlier work
# PPF-MKs = settings: Richardson et al., Blood 2005; cited from earlier work
# Mouse MKs = assay: platelet production ex vivo from MKs in the presence of mito-drugs; type: cell-based; settings: for platelet generation from MKs ex vivo: Bezafibrate 400 μM, Resveratrol 50 μM, SRT1720 0.1 μM, AICAR 500 μM, MK medium for 3 days, compared to controls
# Experimental: FIG. 9 provides a graph showing enhancement of platelet production ex vivo by mito-drugs. C. control; Bez, Bezafibrate (400 μM); Res, Resveratrol (50 μM); SRT1720, 0.1 μM; Aicar, AICAR (500 μM); LLL, 810 nm 3 J/cm^2. Mouse MKs were differentiated in MK medium for 3 days in the presence of an indicated drug or after LLLT. **, p<0.01 and ***, p<0.001 compared to controls. n=6.
# Some mito-drugs tested enhance platelet production from MKs ex vivo. […] The concentration used for individual drugs is the one commonly used for inducing PGC-1α expression in other cell cultures except for SRT1720 that was used at a 100× lower concentration. […] Perhaps, the concentration of each drug can be further optimized for enhancing platelet production.
# [1] = system: circulating platelet counts; assay: circulating platelet counts in mice receiving 5-FU; type: in vivo; settings: on day 4; dose of 150 mg/kg body weight
# Experimental: FIGS. 6A-6D provide graphs showing that LLL alleviates thrombocytopenia induced by anti-CD41 antibody or 5-FU in mice. (A and B) Mice were administered daily with 0.1 mg/kg anti-CD41 antibody over 7 days. LLL was given daily from day 3 to day 7. […] LLL was given daily for 3 consecutive days starting at 4 hr after 5-FU injection. Platelet counts (A and C) were measured daily at 6 hr post-LLL and a tail bleeding time (B and D) was examined on day 5 (B) or day 4 (D). n=6; ns, no significance; and *P<0.05, **P<0.01, ***P<0.001 compared between indicated groups.
# We further extended our investigation to ITP precluding that LLL-mediated thrombopoiesis was specific for thrombocytopenia induced by γ-irradiation. We depleted platelets by administering anti-CD41 antibody daily at 0.1 mg/kg body weight from day 0 to day 7 to create a commonly used animal model of ITP. Katsman et al., Transfusion 50, 1285-1294 (2010). […] LLL lifted the nadir effectively after only two treatments (day 4) and greatly accelerated a recovery of platelet counts in the presence of anti-CD41 antibody, although platelet counts were rebound in all the mice eventually owing to compensatory thrombopoiesis (FIG. 6A). Bleeding time was also normalized on day 5 in LLL-treated animals (FIG. 6B). […]
# MKs [2] = assay: platelet production from LLL-treated MKs with Oligomycin A in MK medium; type: cell-based, mouse; settings: 5 μg/ml in MK medium
# Experimental: (§1) FIGS. 1A-1H provide graphs and images showing LLL promotes MK maturation and platelet production. (A) Illustration of time lines of ex vivo platelet differentiation from MKs. CD41+ FSC^high MKs were sorted from BM cells, treated with or without LLL, and cultured in MK medium. MKs were collected 1 hr later for cellular ATP measurement (B), 1 day for studying proplatelet formation (C-F) or 3 days for counting platelets (G). (B) ATP was measured in 5×10^4 MKs treated with LLL at various energy densities. (C) Sizes of CD41+ MKs were analyzed by flow cytometric analysis of forward/side scatter (FSC) before and after 24 hr differentiation. (D) Representative transmission electron micrographs of MKs from at least 6 samples per group with 30 cells in each group. N, nuclear; IMS, invaginated membrane system. […] (F) The numbers indicated percentages of small or large PPF-MKs of at least 500 MKs analyzed per sample and 6 samples per group. ###P<0.001, large PPF-MKs and **P<0.01, total PPF-MKs compared between the two groups. […]
# (§2) FIGS. 2A-2H provide graphs and images showing the thrombopoietic effect of LLL is ATP-dependent. (A) Correlations between MK ATP levels at 1 hr post-LLL and platelets measured in 3 days later are analyzed by coefficient of determination. […] Mitochondrial membrane potential of CD41+ FSC^high MKs was determined by flow cytometric analysis of red J-aggregate fluorescence at 590 nm. […]
# MKs [3] = assay: ATP measurement in MKs with Oligomycin A; type: cell-based, mouse; settings: 5 μg/ml
# Experimental: as §1, §2
smiles,measurement,setting,value
"CC(C)(Oc1ccc(CCNC(=O)c2ccc(Cl)cc2)cc1)C(=O)O [BEZ, bezafibrate]",platelet counts sustained,5-FU-treated mice; 5-FU 120 and 90 mg/kg on days 1 and 4,≥ 70 % the normal value
COC1=C(OC)C(=O)C(CCCCCCCCCC[P+](c2ccccc2)(c2ccccc2)c2ccccc2)=C(C)C1=O [mitoquinone],thrombocytopenia in IEX-1-deficient mice,IEX-1-deficient mice,completely reverse thrombocytopenia
Nc1ncnc2c1ncn2[C@@H]1O[C@H](COP(=O)(O)OP(=O)(O)OP(=O)(O)O)[C@@H](O)[C@H]1O [ATP],proplatelet elongation,PPF-MKs,activated proplatelet elongation
same,proplatelet growth,PPF-MKs,significantly enhanced proplatelet growth
Oc1ccc(C=Cc2cc(O)cc(O)c2)cc1 [resveratrol],platelet generation from MKs ex vivo,Mouse MKs,enhance platelet generation from MKs ex vivo significantly
same,efficacy compared to BEZ or LLLT,5-FU-treated mice; 5-FU-treated mice,relatively weak
same,nadir of platelet counts,5-FU-treated mice; 5-FU-treated mice,lifted the nadir significantly
same,platelet biogenesis,5-FU-treated mice; 5-FU-treated mice,augmented platelet biogenesis
O=C(Nc1ccccc1-c1cn2c(CN3CCNCC3)csc2n1)c1cnc2ccccc2n1 [SRT1720],platelet generation from MKs ex vivo,Mouse MKs,enhance platelet generation from MKs ex vivo significantly
same,platelet production,Mouse MKs; higher concentration of SRT1720 (than 0.1 μM),did not increase platelet production significantly
"O=c1[nH]cc(F)c(=O)[nH]1 [5-FU, 5-fluorouracil]",diminished circulating platelet counts,[1],43%
CC[C@@H]1/C=C/C=C/C[C@H](C)[C@H](O)[C@](C)(O)C(=O)[C@H](C)[C@@H](O)[C@H](C)C(=O)[C@H](C)[C@@H](O)[C@H](C)/C=C/C(=O)O[C@H]2[C@@H](C)[C@@H](CC1)O[C@@]1(CC[C@@H](C)[C@@H](C[C@H](C)O)O1)[C@@H]2C [Oligomycin A],LLL-mediated enhancement of platelet generation,MKs [2],severely blunted
same,ATP synthesis in the cells,MKs [3],reduces ATP synthesis

# Source: US10918655B2, “Stimulating platelet generation by activating mitochondrial biogenesis” (THE GENERAL HOSPITAL CORPORATION, priority 2016, dated 2021)
